Laboratory results reported in patent US20250195660A1, “INACTIVATING BACTERIA WITH ELECTRIC PULSES AND ANTIBIOTICS” (Purdue Research Foundation, priority 2018, published 2025).

System: Esherichia coli (gram negative bacterium number 25922)
Assay: Inactivation of E. coli by 300 ns electric pulses combined with antibiotic (CFU plating)
Format: cell-based, Escherichia coli
Procedure: Equipment. Used was a capacitor based Blumlein pulse generator with a spark gap switch to produce trapezoidal EPs of 300 ns duration at the peak with rise and fall times close to 50 ns. Multiple pulses were delivered at a frequency of 1 Hz.
The samples were treated in a standard electroporation cuvette (Dot Scientific) whose resistance must match the pulse generator's impedance to prevent pulse reflection. […] Used were 2 mm cuvettes to ensure consistency between tests, and the applied voltage was measured across the cuvette using a LeCroy PPE 20 kV high voltage probe with a 1000:1 attenuation feeding into a TeleDyne LeCroy Waverunner 6 Zi Oscilloscope capable of measuring signals up to 4 GHz. Assuming a purely parallel plate geometry with minimal fringing gives an electric field E=V/d, where V is the peak voltage of the applied pulse and d is the gap distance.
Sample Preparation. These experiments assessed Stapphylococcus aureus (gram positive bacterium number 25923) from ATCC and Esherichia coli (gram negative bacterium number 25922) inoculated in luria broth (LB Broth Lennox, powder microbial growth medium. SIGMA-ALDRICH) by taking 8 mL of broth in a 50 mL sterile conical tube and incubating in a shaker for 20 h at 37° C. The sample was then diluted with fresh Luria broth until attaining an optical density of 0.25 for 100 μL on a photospectrometer (Molecular Devices) for a wavelength of 562 nm as measured in a 96-well plate. The optical density, which varies with growth or tube volume, was determined experimentally and set between 1×10^8 and 1.5×10^8 colony forming units (CFUs)/mL for the samples to be pulsed. These samples were then plated at dilutions between 10-6 and 100 (no dilution) depending on the effectiveness of the pulse treatments.
Electric Pulse Treatment Protocol. […] Although no consensus exists on a universal scaling law for applied EP “dose,” we fixed the energy density
[formula] • where N is the number of pulses and τ is the pulse duration. Fixing U for E=40, 30, and 20 kV/cm gave N=250, 445, and 1000 pulses, respectively. Cultures were plated as described below.
Cuvettes were filled with 365 μL of sample (sufficient to just cover the electrodes) and then 250 μL of molecular biology grade mineral oil was placed on top.
Added were 0.2, 2, and 20 μg/mL of each drug to the initial bacterial dilutions prior to pulsing. Samples were immediately placed on ice to minimize cell division and reduce variability. These aliquots were also used to plate individual unpulsed controls for each drug concentration.
Plating. Plating was done on standard disposable tissue culture Petri dishes from VWR (15 cm diameter, 10 mm height) and covered with 10 mL of agar in luria broth (Agar, microbiology tested powder, SIGMA-ALDRICH), which was prepared by adding 20 g of LB lennox (SIGMA-ALDRICH) and 15 g/L of agar to water and then autoclaved.
Plated were samples at dilutions of 10^−6 and 10^−3 for low and high electric field treatments, respectively, and at 10^−6 and 10^−5 for controls All samples containing 100 μL of pulsed or diluted cultures were plated on LB agar plates and counted after overnight incubation at 37° C.
Pulsing with drugs: bacterial samples of both gram-positive S. aureus and gram-negative E. coli strains were pulsed in a solution with 0.2, 2, and 20 μg/mL of tobramycin and compared to an un-pulsed drug-exposed control. Pulsing and plating were performed to ensure that the drug exposure time of the bacteria was approximately fifteen minutes.

With `CO[C@H]1/C=C/O[C@@]2(C)Oc3c(C)c(O)c4c(O)c(c(/C=N/N5CCN(C)CC5)c(O)c4c3C2=O)NC(=O)/C(C)=C\C=C\[C@H](C)[C@H](O)[C@@H](C)[C@@H](O)[C@@H](C)[C@H](OC(C)=O)[C@@H]1C` [rifampicin] the “log reduction of E. coli” value (20 μg/mL + 445 pulses of 30 kV/cm, consistent with complete sterilization) was greater than 9 log, the “synergy (additional kill off) compared to just the drug, E. coli” value (20 μg/mL, EPs vs no EPs) was 4 log and the “additional log-reduction of E. coli compared to pulsing alone” value (EPs + 2 and 20 μg/mL) was 1.5 log.
